# Literature values, collected in US20090239289A1, “Drain Foam Composition and Method of Using the Same” (priority 2008, published 2009).
compound,measurement,value
"CC(COc1ccc(Oc2ccccc2)cc1)Oc1ccccn1 (stereo not shown) [Nylar, 2-[1-methyl-2(4-phenoxyphenoxy)ethoxy]pyridine]",residual when used outdoors,about 30 days
